Measured values as given in PMC11062899, “De novo development of small cyclic peptides that are orally bioavailable” (Nature Chemical Biology, 2023).
Values joined by “and” are separate entries in the source; they are usually repeats but may differ in a detail not shown here. Equal values may be shown once.

Tests used:
[1] = Passive artificial membrane permeability (PAMPA)
human α-thrombin = human α-thrombin (Homo sapiens, UniProt P00734); assay: Sub-library screen for active and permeable cyclic peptides (PAMPA plus thrombin inhibition); format: biochemical; conditions: crude, slopes normalized to DMSO; for Residual thrombin activity: Top sample: PAMPA acceptor well after 14 h, 5 μM donor; for Residual thrombin activity: Equilibrated sample: donor sample diluted to theoretical equilibrium (1 μM in assay)
How it was run: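 Acylated cyclic peptides at 5 μM in PBS pH 7.4 with 5% DMSO were run through PAMPA for 14 h at room temperature. Acceptor wells and a diluted donor sample at 3 μM, representing maximum permeability, were preincubated 10 min with human α-thrombin (6 nM stock). Z-Gly-Gly-Arg-AMC (150 μM stock) fluorescence was then read for 30 min at 25 °C, and inhibition was taken against a no-peptide control.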

SMILES | Residual thrombin activity: Top sample (human α-thrombin) | Residual thrombin activity: Equilibrated sample (human α-thrombin) | further results
CC(C)NCC(O)COc1cccc2ccccc12 (stereo not drawn) [Propranolol, reference compound] | – | – | PAMPA permeability: % permeability ([1]; 50 μM, 12–18 h, acceptor concentration relative to equilibrium): 71 ± 9%; Permeability% Average ([1]; 50 μM, 13 h (Fig. 5d)): 91.0%; Permeability% (single replicates R1–R3) ([1]; 50 μM, 13 h (Fig. 5d), listed as Probranolol): 87.80% and 90.16% and 95.18%; Papp at 50 μM ([1]; PAMPA, pH 7.4): 12.3 ×10⁻⁶ cm/s; Permeability% Average ([1]; top well sample vs theoretical equilibrium sample (TIC), average of R1-R3): 71.1%; Permeability% ([1]; top well sample vs theoretical equilibrium sample (TIC), single replicates R1-R3, listed as Probranolol): 79.61% and 72.27% and 61.48%
O=C1CSCCC[C@H](NC(=O)c2ccc(Cl)s2)C(=O)N[C@@H](Cc2ccccc2)C(=O)N2CCC[C@@H]2CC(=O)NCCSC1 [C3-X5-L7] | 73.4 | 33.5 | –
O=C1C[C@H]2CCCN2C(=O)[C@H](Cc2ccc(Cl)cc2)NC(=O)[C@@H](NC(=O)c2ccc(Cl)s2)CCCSCc2cccc(c2)CSCCN1 [C3-X34-L5] | 103.1 | 94.9 | –
O=C1C[C@H]2CCCN2C(=O)[C@@H](Cc2ccccc2)NC(=O)[C@@H](NC(=O)c2ccc(Cl)s2)CCCSCCS(=O)(=O)CCSCCN1 [C3-X31-L2] | 103.5 | 93.7 | –
O=C1C[C@H]2CCCN2C(=O)[C@H](Cc2ccc(Cl)cc2)NC(=O)[C@@H](NC(=O)c2ccc(Cl)s2)CSCc2ccc(cc2)CSCCN1 [C1-X34-L3] | 96.0 | 94.6 | –
CN1C(=O)[C@@H](NC(=O)c2ccc(Cl)s2)CCCSCCS(=O)(=O)CCSCCNC(=O)C[C@H]2CCCN2C(=O)[C@@H]1Cc1ccccc1 [C3-X32-L2] | 103.4 | 103.4 | –
Cc1cccc(C[C@@H]2NC(=O)[C@@H](NC(=O)c3ccc(Cl)s3)CCCSC/C=C/CSCCNC(=O)C[C@H]3CCCN3C2=O)c1 [C3-X37-L4] | 84.2 | 63.6 | –
O=C1CSCCNC(=O)C[C@H]2CCCN2C(=O)[C@@H](Cc2ccccc2)NC(=O)[C@@H](NC(=O)c2ccc(Cl)s2)CCSC1 [C2-X31-L7] | 102.6 | 101.7 | –
COc1ccc(C[C@@H]2NC(=O)[C@@H](NC(=O)c3ccc(Cl)s3)CCSCC(=O)CSCCNC(=O)C[C@H]3CCCN3C2=O)cc1 [C2-X33-L7] | 102.7 | 99.9 | –
COc1ccc(C[C@@H]2NC(=O)[C@@H](NC(=O)c3ccc(Cl)s3)CCCSCc3ccccc3CSCCNC(=O)C[C@H]3CCCN3C2=O)cc1 [C3-X33-L6] | 95.1 | 92.6 | –
O=C1C[C@H]2CCCN2C(=O)[C@H](Cc2ccc(Cl)cc2)NC(=O)[C@@H](NC(=O)c2ccc(Cl)s2)CCSC/C=C/CSCCN1 [C2-X34-L4] | 98.6 | 98.5 | –
O=C1C[C@H]2CCCN2C(=O)[C@H](Cc2ccccc2)NC(=O)[C@@H](NC(=O)c2ccc(Cl)s2)CCSCc2ccccc2CSCCN1 [C2-X5-L6] | 87.4 | 76.1 | –
O=C1C[C@H]2CCCN2C(=O)[C@H](Cc2ccccc2)NC(=O)[C@@H](NC(=O)c2ccc(Cl)s2)CSCCS(=O)(=O)CCSCCN1 [C1-X5-L2] | 88.1 | 37.4 | –
O=C1C[C@H]2CCCN2C(=O)[C@H](Cc2ccc(Cl)cc2)NC(=O)[C@@H](NC(=O)c2ccc(Cl)s2)CSC/C=C/CSCCN1 [C1-X34-L4] | 98.7 | 91.7 | –
O=C1C[C@H]2CCCN2C(=O)[C@H](Cc2ccc(C(F)(F)F)cc2)NC(=O)[C@@H](NC(=O)c2ccc(Cl)s2)CCSCc2ccc(cc2)CSCCN1 [C2-X36-L3] | 95.8 | 101.3 | –
O=C1C[C@H]2CCCN2C(=O)[C@H](Cc2ccc(Cl)cc2)NC(=O)[C@@H](NC(=O)c2ccc(Cl)s2)CSCc2cccc(n2)CSCCN1 [C1-X34-L1] | 93.9 | 92.0 | –
CN1C(=O)[C@@H](NC(=O)c2ccc(Cl)s2)CSCC(=O)CSCCNC(=O)C[C@H]2CCCN2C(=O)[C@@H]1Cc1ccccc1 [C1-X32-L7] | 95.4 | 96.7 | –

SMILES | Residual thrombin activity: Top sample (human α-thrombin) | Residual thrombin activity: Equilibrated sample (human α-thrombin) | further results
O=C1C[C@H]2CCCN2C(=O)[C@@H](Cc2ccccc2)NC(=O)[C@@H](NC(=O)c2ccc(Cl)s2)CSCc2cccc(c2)CSCCN1 [C1-X31-L5] | 100.5 | 95.5 | –
COc1ccc(C[C@@H]2NC(=O)[C@@H](NC(=O)c3ccc(Cl)s3)CSCC(=O)CSCCNC(=O)C[C@H]3CCCN3C2=O)cc1 [C1-X33-L7] | 97.9 | 101.4 | –
N#Cc1ccc(C[C@@H]2NC(=O)[C@@H](NC(=O)c3ccc(Cl)s3)CSCc3ccc(cc3)CSCCNC(=O)C[C@H]3CCCN3C2=O)cc1 [C1-X35-L3] | 94.1 | 100.0 | –
O=C1C[C@H]2CCCN2C(=O)[C@H](Cc2ccc(C(F)(F)F)cc2)NC(=O)[C@@H](NC(=O)c2ccc(Cl)s2)CSCc2cccc(n2)CSCCN1 [C1-X36-L1] | 93.6 | 98.9 | –
N#Cc1ccc(C[C@@H]2NC(=O)[C@@H](NC(=O)c3ccc(Cl)s3)CCSCC(=O)CSCCNC(=O)C[C@H]3CCCN3C2=O)cc1 [C2-X35-L7] | 103.0 | 104.7 | –
CN1C(=O)[C@@H](NC(=O)c2ccc(Cl)s2)CSCCS(=O)(=O)CCSCCNC(=O)C[C@H]2CCCN2C(=O)[C@@H]1Cc1ccccc1 [C1-X32-L2] | 96.4 | 95.3 | –
N#Cc1ccc(C[C@@H]2NC(=O)[C@@H](NC(=O)c3ccc(Cl)s3)CSCc3cccc(c3)CSCCNC(=O)C[C@H]3CCCN3C2=O)cc1 [C1-X35-L5] | 102.4 | 97.2 | –
O=C1C[C@H]2CCCN2C(=O)[C@H](Cc2ccc(C(F)(F)F)cc2)NC(=O)[C@@H](NC(=O)c2ccc(Cl)s2)CSC/C=C/CSCCN1 [C1-X36-L4] | 96.8 | 92.7 | –
O=C1C[C@H]2CCCN2C(=O)[C@@H](Cc2ccccc2)NC(=O)[C@@H](NC(=O)c2ccc(Cl)s2)CCSCCS(=O)(=O)CCSCCN1 [C2-X31-L2] | 98.7 | 98.6 | –
O=C1CSCCC[C@H](NC(=O)c2ccc(Cl)s2)C(=O)N[C@H](Cc2ccccc2)C(=O)N2CCC[C@@H]2CC(=O)NCCSC1 [C3-X31-L7] | 102.1 | 99.4 | –
CN1C(=O)[C@@H](NC(=O)c2ccc(Cl)s2)CCCSC/C=C/CSCCNC(=O)C[C@H]2CCCN2C(=O)[C@@H]1Cc1ccccc1 [C3-X32-L4] | 101.4 | 100.1 | –
O=C1C[C@H]2CCCN2C(=O)[C@H](Cc2ccc(C(F)(F)F)cc2)NC(=O)[C@@H](NC(=O)c2ccc(Cl)s2)CCCSC/C=C/CSCCN1 [C3-X36-L4] | 103.6 | 102.0 | –
Cc1cccc(C[C@@H]2NC(=O)[C@@H](NC(=O)c3ccc(Cl)s3)CCSCc3ccc(cc3)CSCCNC(=O)C[C@H]3CCCN3C2=O)c1 [C2-X37-L3] | 100.6 | 94.8 | –
O=C1C[C@H]2CCCN2C(=O)[C@H](Cc2ccccc2)NC(=O)[C@@H](NC(=O)c2ccc(Cl)s2)CSCc2ccc(cc2)CSCCN1 [C1-X5-L3] | 88.7 | 68.9 | –
O=C1C[C@H]2CCCN2C(=O)[C@H](Cc2ccc(Cl)cc2)NC(=O)[C@@H](NC(=O)c2ccc(Cl)s2)CSCc2ccccc2CSCCN1 [C1-X34-L6] | 93.0 | 92.0 | –
N#Cc1ccc(C[C@@H]2NC(=O)[C@@H](NC(=O)c3ccc(Cl)s3)CCSCc3cccc(c3)CSCCNC(=O)C[C@H]3CCCN3C2=O)cc1 [C2-X35-L5] | 106.2 | 101.3 | –
N#Cc1ccc(C[C@@H]2NC(=O)[C@@H](NC(=O)c3ccc(Cl)s3)CSCc3cccc(n3)CSCCNC(=O)C[C@H]3CCCN3C2=O)cc1 [C1-X35-L1] | 91.5 | 92.1 | –
